We go through 14 compounds from patent publication US8664237B2 (The Johns Hopkins University, priority 2008, dated 2014).

The test system of assay [1] is IB3-1 cells. Put plainly: Fura-2 microscope calcium measurement in IB3-1 cells. Conditions: for effect of preincubation on the spiperone-induced Ca2+ increase: inhibitor given before spiperone; for spiperone Ca2+ response after prior addition of the analog: analog added prior to spiperone; for increase of intracellular Ca2+ / Ca2+ release: spiperone analogs, solution not stated. It is filed as cell-based, human. From the text: . A microscope-based fluorescence Ca^2+ measurement system was utilized in this study. First IB3-1 cells grown on a coverglass were bathed in the ECaT Ringer's which was used for the screen. […] In order to ascertain the origin of this sustained increase the experiment was repeated except with Ca^2+-free ECaT Ringer's solution, (See FIG. 8).
Using normal Ringers, a study was undertaken to determine whether the source of the increase in cytoplasmic Ca^2+ was indeed the endoplasmic reticulum (ER). As part of the normal Ca^2+ transit system across the ER, the Ca^2+-ATPase pumps Ca^2+ from the cytosol to the ER uphill against the concentration gradient. Other channels continue to cycle Ca^2+ from ER back to cytosol. Thapsigargin blocks the Ca^2+-ATPase, inhibiting the uphill uptake. […]
Phospholipase C (PLC) is an intracellular enzyme that participates in calcium signaling pathways. […]. There are two major molecules that activate PLC pathways to release Ca^2+ from the ER. One is the G-protein coupled receptors. The second is the protein tyrosine kinase […]. […]. […] (FIG. 12G is the summary data of genistein treatment.) Lavendustin A is another protein tyrosine kinase inhibitor. […].
(§1) Cells were seeded on the collagen-coated cover glass for 48 h. Cell Ca^2+ was measured with a dual excitation wavelength microscope system. Fura-2 fluorescence was excited at 340 nm and 380 nm with xenon light. Fluorescence was measured at 510 nm emission wavelength. Data was processed and analyzed using IPLab 4.0 software. Fluorescence data of each experiment were normalized to the individual basal fluorescence value ΔF/F0=(F−F0)/F0 to bring all the response curves to the same pretreatment starting point.

Assay [2] relates to Calu-3 cells. Nature of the assay: Short-circuit current measurement (Cl- secretion), Calu-3 monolayers. Conditions: for effect of channel blocker on spiperone-induced sustained Cl- release / effect of channel blocker on spiperone-induced transient Cl-: amiloride present; for Cl- current (short circuit current): normal Ringer's, Na+ absorption blocked with amiloride. It is filed as cell-based, human. The protocol: (§2) An experiment was carried out to establish that the spiperone-induced increase of Ca^2+ would produce an increase in Cl^− transport relevant to CF, and that it would do so in CF relevant epithelial cells. Calu-3 and CFBE41o-cell monolayers were cultured on permeable filter support and “short circuit current” measurements were performed to evaluate the current produced by Cl^− in these cells.
(§3) Na^+ is a positively charged ion and its absorption would interfere with the short circuit measurement for Cl^− secretion. Therefore, in normal Ringer's solution, Na^+ absorption across the cell membrane was blocked with amiloride. Cell monolayers were then exposed to the two relevant compounds: niflumic acid (NFA), which is a non-selective CaCCs blocker or to CFTRinh-172, which is a specific CFTR blocker.
(§4) Calu-3 and CFBE41o-cells were cultured on Snapwell inserts until they formed a tight monolayer as monitored by measuring the transepithelial resistance. The bottom of the monolayer was taken out, mounted on the Ussing chamber and buffered by the testing solutions. The short-circuit current was measured by a VCC MC6 multichannel voltage/current clamp (Physiologic Instruments, San Diego, Calif.). Data were recorded and analyzed by Acquire and Analyze software.

For assay [3] the following is noted: 24 weeks of treatment, phase III trial, inhaled; cited from earlier work.
For assay [4], the system named is CFBE41o- cells. Put plainly: Short-circuit current measurement (Cl- secretion), CFBE41o- monolayers. In kind it is cell-based, human. Conditions: for Cl- secretion (short circuit current): normal Ringer's, amiloride. The protocol:
as §2, §3, §4

In assay [5] the test system is IB3-1 cells. Nature of the assay: Compound screening for calcium enhancers (Fura-2 fluorescence plate reader).
Source text: Thus for the ECaT Ringers, we eliminated Na^+ from the solution and replaced it completely by N-methyl-D-glucamine (NMDG) to maintain the solution osmolality to favor Ca^2+ for entry through the P2X receptor. We were searching for compounds that activate the P2X receptor channel or other Ca^2+ entry channels, as well as compounds that bind to membrane or cellular proteins which are involved in intracellular Ca^2+ regulation.
Compounds were selected as potential hits if their change of fluorescence ratio fell within 3 SD of those obtained for zinc (ratio), and larger than that recorded for DMSO (ratio) +3SD. The average Z factor of all 25 plates is 0.6 for the 15 min detection. Hits were solely based on the change in the fluorescence ratio. Any compound that was highly auto-fluorescent was not considered further.
We further evaluated 37 hits manually using the Fluorescence Plate Reader system. […] Following this initial vetting process, the half-maximal effective concentration (EC50) was determined of each of the remaining 19 molecules. […] Compound Library: Library MSSP (Microsource Discovery Inc) was our source for compounds for the primary screening. The compounds were known bioactive compounds and natural products and their derivatives. The library contained 2,000 compounds on twenty-five 96-well plates, with 80 compounds tested per plate. In the master plates, each compound was suspended in DMSO at a concentration of 10 mM. A set of 96-well plates of the library in a concentration of 2 mM in DMSO was made prior to the screening.
Screening Procedure: The screening was performed by the Johns Hopkins University High Throughput Biology Center Chemcore. […] The fluorescence ratio was measured in ECaT Ringer's solution by a Tecan Safire Fluorescence Plate Reader. […] The fluorescence ratio was measured again immediately after adding the compounds. The final fluorescence detection was done 15 min after the second detection in order to find compounds which stimulate the sustained Ca^2+ increase.
The target of a further assay is 5-HT2 receptor (Homo sapiens, UniProt P28223). Conditions: antagonists; cited from earlier work.
Chain of 5-HT2 receptor (P28223 whole entry): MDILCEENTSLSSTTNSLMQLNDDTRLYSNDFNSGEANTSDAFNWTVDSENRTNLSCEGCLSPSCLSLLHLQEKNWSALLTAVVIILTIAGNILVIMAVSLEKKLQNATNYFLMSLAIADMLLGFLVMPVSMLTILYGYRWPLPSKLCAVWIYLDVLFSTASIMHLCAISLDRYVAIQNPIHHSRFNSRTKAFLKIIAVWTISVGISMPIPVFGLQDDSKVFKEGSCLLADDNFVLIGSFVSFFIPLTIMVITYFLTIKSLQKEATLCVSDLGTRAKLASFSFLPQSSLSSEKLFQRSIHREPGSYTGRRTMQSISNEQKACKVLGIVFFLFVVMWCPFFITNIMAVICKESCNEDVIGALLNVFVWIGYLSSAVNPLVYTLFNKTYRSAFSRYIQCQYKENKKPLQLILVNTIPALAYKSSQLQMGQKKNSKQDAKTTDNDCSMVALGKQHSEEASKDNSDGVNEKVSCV
Another assay deals with dopamine D2 receptor (Homo sapiens, UniProt P14416). Conditions: cited from earlier work.
Chain of dopamine D2 receptor (P14416 whole entry, species assumed): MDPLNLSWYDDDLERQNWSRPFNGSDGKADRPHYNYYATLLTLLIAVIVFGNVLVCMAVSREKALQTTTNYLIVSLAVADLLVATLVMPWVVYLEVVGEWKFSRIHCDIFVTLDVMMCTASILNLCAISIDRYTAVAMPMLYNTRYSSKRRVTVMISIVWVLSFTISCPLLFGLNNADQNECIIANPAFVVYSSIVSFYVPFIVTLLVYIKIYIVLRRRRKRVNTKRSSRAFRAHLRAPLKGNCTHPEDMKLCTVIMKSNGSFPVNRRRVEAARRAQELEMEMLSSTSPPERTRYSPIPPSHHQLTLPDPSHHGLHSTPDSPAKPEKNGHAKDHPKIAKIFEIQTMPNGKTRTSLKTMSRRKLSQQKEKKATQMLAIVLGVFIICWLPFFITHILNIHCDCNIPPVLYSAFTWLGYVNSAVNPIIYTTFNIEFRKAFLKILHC
The next assay concerns 5-HT receptor. Conditions: canine tracheal epithelia, another study; cited from earlier work.
The subject of assay [6] is Calu-3 cells. Put plainly: Fura-2 microscope calcium measurement in Calu-3 cells. It is filed as cell-based, human. Conditions: Calu-3 non-CF; Ca2+-free Ringers. The protocol:
as §1

The subject of assay [7] is CFBE41o- cells. Nature of the assay: Fura-2 microscope calcium measurement in CFBE41o- cells. It is filed as cell-based, human. Conditions: CFBE41o- CF; Ca2+-free Ringers. How it is done: as §1
A further assay concerns NHBE. Put plainly: Fura-2 microscope calcium measurement in NHBE primary cells. It is filed as cell-based, human. Conditions: NHBE primary culture; Ca2+-free Ringers. How it is done:
as §1

Assay [8] deals with nasal epithelia of wild-type (C57B1/6) mice. Put plainly: Mouse nasal potential difference, wild-type C57B1/6 mice. Conditions: after elimination of mucosal Cl-.
Source text: Animals: The studies conducted were approved by the Johns Hopkins University Animal Care and Use Committee. […] Nasal Potential Difference (NPD): All mice were anesthetized with an IP injection of a ketamine and xylazine mixture (100 mcg/10 mcg per gram of body weight). […] Briefly, a high impedance voltmeter (World Precision Instruments, Sarasota, Fla.) was connected by silver-chloride pellet electrodes to an exploring nasal bridge and a reference subcutaneous bridge. The nasal bridge, a single polyethylene tube (PE10, 0.28 mm ID, Clay-Adams, B D, Sparks, Md.) was pulled to one-half its original diameter and cut at a 45 degree angle. The tubing was marked and inserted 5 mm from the tip of the nare. A paper tape flag indicated position and orientation of the tip. The subcutaneous bridge was a 25 GA Butterfly® (Abbott, Chicago, Ill.) needle containing Ringer's solution inserted subcutaneously in the right abdominal wall. Each solution was warmed to 37° C. and perfused to the nare for at least 3 minutes at 5 micro liters per minute using a perfusion pump. Following the procedure, the oral cavity was gently suctioned of perfusate and the mice were recovered to their cages. Voltmeter data (mV) was recorded by a PowerLab A/D converter connected to a PC running Chart software at 20 samples per second (AD Instruments, Colorado Springs, Colo.). […]
For assay [9], the system named is nasal epithelium of CFKO mice. Nature of the assay: Mouse nasal potential difference, CF (double transgenic CFKO) mice.
Source text: In order to allow for later hyperpolarization from chloride secretion, their nasal epithelia were perfused with baseline Ringers with amiloride added to block the epithelial Na^+ channel. For the next perfusion, the Cl^− was removed by substituting Na^+ gluconate in the baseline Ringer's solution (FIG. 8), then removed Cl^− from the mucosa by perfusing the nare with that Ringer's.
Nasal Potential Difference (NPD): All mice were anesthetized with an IP injection of a ketamine and xylazine mixture (100 mcg/10 mcg per gram of body weight). […] Briefly, a high impedance voltmeter (World Precision Instruments, Sarasota, Fla.) was connected by silver-chloride pellet electrodes to an exploring nasal bridge and a reference subcutaneous bridge. The nasal bridge, a single polyethylene tube (PE10, 0.28 mm ID, Clay-Adams, B D, Sparks, Md.) was pulled to one-half its original diameter and cut at a 45 degree angle. The tubing was marked and inserted 5 mm from the tip of the nare. A paper tape flag indicated position and orientation of the tip. The subcutaneous bridge was a 25 GA Butterfly® (Abbott, Chicago, Ill.) needle containing Ringer's solution inserted subcutaneously in the right abdominal wall. Each solution was warmed to 37° C. and perfused to the nare for at least 3 minutes at 5 micro liters per minute using a perfusion pump. Following the procedure, the oral cavity was gently suctioned of perfusate and the mice were recovered to their cages. Voltmeter data (mV) was recorded by a PowerLab A/D converter connected to a PC running Chart software at 20 samples per second (AD Instruments, Colorado Springs, Colo.). A minimum of 400 data points (˜20 seconds) were used to calculate the mean voltage values.

Consider `NCCOB(c1ccccc1)c1ccccc1` [2APB], for which the “effect on the spiperone induced Ca2+ release from ER” value in the assay with IB3-1 cells [1] (100 μM, 30 minutes incubation, data not shown) was “totally blocked”.

For `O=C(O)c1ccc(/C=C2\SC(=S)N(c3cccc(C(F)(F)F)c3)C2=O)cc1` [CFTRinh-172], in the assay on Calu-3 cells [2], the “effect of channel blocker on spiperone-induced sustained Cl- release” value was “totally blocked” and the “effect of channel blocker on spiperone-induced transient Cl-” value was “reduced”.

As for `Nc1ccn([C@H]2C[C@H](O)[C@@H](COP(=O)(O)OP(=O)(O)OP(=O)(O)OP(=O)(O)OC[C@H]3O[C@@H](n4ccc(=O)[nH]c4=O)[C@H](O)[C@@H]3O)O2)c(=O)n1` [Denufosol, denufosol], in assay [3], the “improvement in lung function” value is given as 2.5%.

Take `O=C(O)c1cccnc1Nc1cccc(C(F)(F)F)c1` [NFA, niflumic acid]: in the assay on Calu-3 cells [2], the “effect of channel blocker on spiperone-induced sustained Cl- release” value is listed as “totally blocked” and the “effect of channel blocker on spiperone-induced transient Cl-” value is reported as “reduced”. In the assay with CFBE41o- cells [4], the “effect of CaCC blocker on spiperone's effect on Cl- secretion” value is “reduced significantly”.

For `Cc1ccc(C(=O)Nc2ccc(S(=O)(=O)O)c3cc(S(=O)(=O)O)cc(S(=O)(=O)O)c23)cc1NC(=O)c1cccc(NC(=O)Nc2cccc(C(=O)Nc3cc(C(=O)Nc4ccc(S(=O)(=O)O)c5cc(S(=O)(=O)O)cc(S(=O)(=O)O)c45)ccc3C)c2)c1` [Suramin, suramin], the “effect of preincubation on the spiperone-induced Ca2+ increase” value with IB3-1 cells [1] is “did not reduce”.

For `COc1ccc2c(c1)CC[C@@H]1[C@@H]2CC[C@]2(C)[C@@H](NCCCCCCN3C(=O)C=CC3=O)CC[C@@H]12` [U73122], the “effect of preincubation on the spiperone-induced Ca2+ increase” value in the assay on IB3-1 cells [1] was “diminished”.

As to `COc1ccc2c(c1)CC[C@@H]1[C@@H]2CC[C@]2(C)C(NCCCCCCN3C(=O)CCC3=O)CC[C@@H]12` (stereo partly shown) [U73433], the “effect of preincubation on the spiperone-induced Ca2+ increase” value with IB3-1 cells [1] was “did not”.

Take `[Zn]` [Zinc, zinc]: the “increase in cytoplasmic Ca2+ (change in fluorescence ratio)” value in the assay on IB3-1 cells [5] (ECaT Ringer's, plate reader) is reported as “long lasting increase in cytoplasmic Ca^2+”.

Turning to `O=c1c(-c2ccc(O)cc2)coc2cc(O)cc(O)c12` [genistein], the “effect of preincubation on the spiperone-induced Ca2+ increase” value in the assay on IB3-1 cells [1] is given as “partially blocked”.

In the case of `O=C(CCCN1CCC(O)(c2ccc(Cl)cc2)CC1)c1ccc(F)cc1` [haloperidol], the “spiperone Ca2+ response after prior addition of the analog” value in the assay with IB3-1 cells [1] (Ca2+-free normal Ringer's) is recorded as “spiperone was still able to stimulate a transient increase in Ca^2+”. Moreover, the “increase of intracellular Ca2+ / Ca2+ release” value in the assay with IB3-1 cells [1] is recorded as “did not release Ca^2+”. The “effect on spiperone-stimulated transepithelial Cl- currents” value in the assay on Calu-3 cells [2] (analog given before spiperone) was “did not prevent spiperone from stimulating transepithelial Cl^− currents”. The “Cl- current (short circuit current)” value with Calu-3 cells [2] is “did not stimulate the Cl^− current”.

With `O=C(c1ccc(F)cc1)C1CCN(CCn2c(=O)[nH]c3ccccc3c2=O)CC1` [ketanserin], in the assay on IB3-1 cells [1] (Ca2+-free normal Ringer's), the “spiperone Ca2+ response after prior addition of the analog” value is “spiperone was still able to stimulate a transient increase in Ca^2+”. In addition, the “increase of intracellular Ca2+ / Ca2+ release” value in the assay with IB3-1 cells [1] is given as “did not increase intracellular Ca^2+”. The “affinity for the 5-HT2 receptor” value at 5-HT2 receptor is “high affinity”. For the same compound, the “antagonism of the dopamine receptor” value at dopamine D2 receptor is reported as “very weakly antagonistic”. Besides, the “effect on 5-HT effects (inhibited Na+ absorption, stimulated Cl- secretion)” value in the assay on 5-HT receptor is reported as “blocked those effects”.

Take `O=C(O)c1cc(N(Cc2ccccc2O)Cc2cc(O)ccc2O)ccc1O` [lavendustin A]: the “effect on the increase in Ca2+ induced by spiperone” value in the assay on IB3-1 cells [1] (10 μM, data not shown) is recorded as “significantly diminished”.

As to `O=C(CCCN1CCC2(CC1)C(=O)NCN2c1ccccc1)c1ccc(F)cc1` [spiperone], the “change in cytoplasmic Ca2+” value is “only a transient increase in cytoplasmic Ca^2+” in the assay with IB3-1 cells [1] (Ca2+-free ECaT Ringer's), “only a transient increase in Ca^2+” in the assay with IB3-1 cells [1] (Ca2+-free normal Ringer's), “sustained increase in Ca^2+” with IB3-1 cells [1] (ECaT Ringer's) and “only a transient increase in Ca^2+” in the assay on IB3-1 cells [1] (normal Ringer's). Moreover, the “cytosolic Ca2+ response to thapsigargin after spiperone” value with IB3-1 cells [1] (cells treated with spiperone before thapsigargin, normal Ringers) is recorded as “no increase in cytosolic Ca^2+”. Besides, the “change in Ca2+” value in the assay with Calu-3 cells [6], in the assay on CFBE41o- cells [7] and in the assay with NHBE was “transient increase in Ca^2+” throughout. Further, the Cl- secretion entry in the assay on Calu-3 cells [2] (20 μM, monolayers) is recorded as “stimulated Cl^− secretion”; with CFBE41o- cells [4] (20 μM, monolayers) it was “stimulated Cl^− secretion”. In the assay with Calu-3 cells [2] ("our study", airway epithelial cells), the “amount of spiperone required to induce Cl- secretion” value was “at least 1 μmol”. In addition, in the assay with Calu-3 cells [2], the “Cl- current (short circuit current)” value is “a transient and then a sustained Cl^− current”. The “Cl- secretion (short circuit current)” value in the assay with CFBE41o- cells [4] is on record as “only a transient Cl^− secretion”. Besides, in the assay on CFBE41o- cells [4] (subsequent to thapsigargin), the “Cl- transit on spiperone applied after thapsigargin” value was “failed to stimulate any additional Cl^− transit”. In addition, the “affinity for the 5-HT2 receptor” value at 5-HT2 receptor is “high affinity”. Besides, the “affinity for the dopamine D2 receptor” value at dopamine D2 receptor (antagonists) is reported as “high affinity”. Also, the “nasal potential difference / Cl- conductance” value in assay [8] was “did not induce any further hyperpolarization”; in assay [9] (1 μM in Zero Cl- baseline Ringer's, after amiloride, nasal perfusion), “hyperpolarized the mouse nasal potential significantly”; in [9] (subsequent increase to 20 μM) it was “did not boost Cl^− conductance”. Also, the nasal potential difference result in [9] (1 μM, after 19 min of sustained perfusion) was “remained significantly hyperpolarized”. For the same compound, the “spiperone concentrations at which the Ca2+ stimulation is reduced” value in the assay with IB3-1 cells [5] (higher concentrations, inhibition) was over 50 µM. The “spiperone concentrations that stimulate cytoplasmic Ca2+” value with IB3-1 cells [5] (lower concentrations, activation) was “less than 50 μM”.

As to `C/C=C(/C)C(=O)O[C@H]1C(C)=C2[C@H]([C@@H]1OC(=O)CCCCCCC)[C@@](C)(OC(C)=O)C[C@H](OC(=O)CCC)[C@@]1(O)[C@H]2OC(=O)[C@@]1(C)O` [thapsigargin], the “change in cytoplasmic Ca2+” value in the assay with IB3-1 cells [1] (normal Ringer's) is “net increase in Ca^2+ in the cytosol”. Moreover, in the assay with CFBE41o- cells [4], the “Cl- secretion (short circuit current)” value was “transient increase in Cl^− secretion”.
